Laboratory results from publication PMC8552062, “Contributions of UDP-Glucuronosyltransferases to Human Hepatic and Intestinal Metabolism of Ticagrelor and Inhibition of UGTs and Cytochrome P450 Enzymes by Ticagrelor and its Glucuronidated Metabolite” (Frontiers in Pharmacology, 2021).
pIC50: −log10 of the molar value.

Biological target: T1, CYP2B6 (Homo sapiens, UniProt P20813)
T1 construct: co-incubation ticagrelor-O-Glu with selective P450 probe substrates in HLM; tissue XenoTech LLC; host or cells: pooled human liver microsomes
T1 sequence (P20813 1-491): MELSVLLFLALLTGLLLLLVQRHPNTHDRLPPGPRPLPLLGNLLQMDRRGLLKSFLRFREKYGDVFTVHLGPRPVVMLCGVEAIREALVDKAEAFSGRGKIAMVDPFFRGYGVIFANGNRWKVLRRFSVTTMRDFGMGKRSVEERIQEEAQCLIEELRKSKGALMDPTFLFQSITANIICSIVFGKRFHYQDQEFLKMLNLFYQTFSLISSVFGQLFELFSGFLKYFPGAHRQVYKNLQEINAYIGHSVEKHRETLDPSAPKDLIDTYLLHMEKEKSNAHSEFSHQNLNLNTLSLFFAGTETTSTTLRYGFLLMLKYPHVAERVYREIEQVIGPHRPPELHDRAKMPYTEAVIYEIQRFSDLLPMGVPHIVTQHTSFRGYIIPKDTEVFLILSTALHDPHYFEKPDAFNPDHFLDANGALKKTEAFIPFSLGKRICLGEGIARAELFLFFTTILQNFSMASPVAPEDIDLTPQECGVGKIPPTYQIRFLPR
Assay: CYP2B6 inhibition in HLM (bupropion hydroxylase)
Type: in vitro ADME
Experimental: The potential inhibitory effects of ticagrelor-O-Glu on the activities of major CYPs, i.e., CYP2B6, CYP2C8, CYP2C9, CYP2C19, CYP2D6, and CYP3A4, were evaluated by co-incubation ticagrelor-O-Glu with selective P450 probe substrates in HLM. Each incubation mixture containing 0.2 mg/ml HLM, ticagrelor-O-Glu and respective substrate (the final substrate concentrations are close to or less than the Km values: 150 μM bupropion, 1.26 μM amodiaquine, 10 μM diclofenac, 20 μM mephenytoin, 20 μM dextromethorphan and 80 μM testosterone (in house data)) in potassium phosphate buffer (100 mM, pH 7.4) was pre-incubated at 37°C for 5 min. Then, NADPH (10 mM) was added to initiate the reaction. The final volume of the incubation mixture was 100 μl. After incubation at 37°C for specific time points, the reaction was terminated by the addition of 200 μl of ice-cold methanol solution with internal standards (diazepam and furafylline). Preliminary screening experiments with selected concentrations of ticagrelor-O-Glu (0, 1, 10, or 100 μM of the final concentration) were carried out to determine the inhibition potency. For those that produced approximately 50% inhibition of CYPs enzyme activities at a ticagrelor-O-Glu concentration between 1 and 100 μM, IC50 was further determined with various concentrations of ticagrelor-O-Glu (0, 1, 5, 10, 20, 50, and 100 μM). All the experiments were performed in triplicates. The supernatant was obtained after centrifugation at 14,000 rpm for 10 min and injected into LC-MS/MS for the analysis of the respective metabolites. The formation of respective metabolites was determined to reflect P450 isoform activities. The metabolites quantified for CYP2B6, CYP2C8, CYP2C9, CYP2C19, CYP2D6, and CYP3A4 were hydroxy bupropion, N-Desethyl amodiaquine, 4′-hydroxylation diclofenac, S-4-hydroxy mephenytoin, dextrorphan and 6β-hydroxy testosterone, respectively.
The percent inhibition relative to the control was calculated to indicate the UGTs or CYPs inhibition. […]

`CCCSc1nc(N[C@@H]2C[C@H]2c2ccc(F)c(F)c2)c2nnn([C@@H]3C[C@H](OCCO[C@@H]4O[C@H](C(=O)O)[C@@H](O)[C@H](O)[C@H]4O)[C@@H](O)[C@H]3O)c2n1` [Ticagrelor-O-Glu, ticagrelor-O-glucuronide] showed a pIC50 (CYP2B6, bupropion hydroxylase, HLM 0.2 mg/ml) of 4.35, an inhibition at 10 μM (human, human liver microsomes, pH 7.4, probe bupropion (150 μM), hydroxy bupropion formation, HLM, 10 μM ticagrelor-O-Glu) of 19.1% and an inhibition at 100 µM (human, human liver microsomes, pH 7.4, probe bupropion (150 μM), hydroxy bupropion formation, HLM, 100 μM ticagrelor-O-Glu) of 77.9%.
